Data taken from patent US20070117826A1, “Pharmaceutical formulations comprising ibuprofen, oxycodone, and 14-hydroxycodeinone” (Forest Laboratories, Inc., priority 2005, published 2007).
“And” between values parts separate entries of the source, which are not always exact repeats. Identical values can stand only once. “Also recorded” adds a separate entry of the source.

Key:
[1] = system: Crl:CD-1(ICR) BR mice; experiment: Dose range finding study (mortality); assay type: in vivo, mouse; details: oral gavage
Description: Since no appropriate toxicity data were available (e.g., the same species, strain, route, etc.), a dose range finding study was performed using the same treatment regimen used in the micronucleus assay. Young adult male and female mice of the Crl:CD-1®(ICR) BR strain from Charles River Laboratories, Raleigh, N.C., were used in this study. Dose levels of 0, 125, 250, and 500 mg/kg were tested.

[2] = system: polychromatic erythrocyte cells in Crl:CD-1(ICR) BR mouse bone marrow; experiment: In vivo mouse micronucleus assay; details: for statistically significant increase in micronucleated PCEs: 31.25, 62.5 and 125 mg/kg; for signs of clinical toxicity in treated animals: mice dosed up to and including 125 mg/kg
Description: The objective of this study was to evaluate 14-hydroxycodeinone for in vivo clastogenic activity and/or disruption of the mitotic apparatus by detecting micronuclei in polychromatic erythrocyte cells in Crl:CD-1®(ICR) BR mouse bone marrow. The assay design was based on Organization for Economic Co-operation and Development (OECD) guideline 474, updated and adopted Jul. 21, 1997. The study was conducted in compliance with the Good Laboratory Practice regulations as set forth by the FDA.
The micronucleus test can serve as a rapid screen for clastogenic agents and test articles which interfere with normal mitotic cell division (Schmid, W., The micronucleus test. Mutat. Res. 31, 9-15, 1975; Heddle et al., The introduction of micronuclei as a measure of genotoxicity. Mutat. Res. 123, 61-118, 1983). Micronuclei are small chromatin bodies, consisting of entire chromosomes and/or acentric chromosome fragments, which lag behind at mitotic anaphase. At telophase, these multiple micronuclei are in the cytoplasm. During maturation of hematopoietic cells from erythoblasts to erythocytes, the nucleus is extruded. Micronuclei, if present, persist in the cytoplasm of these non-nucleated cells. Detection of micronuclei in non-nucleated cells eliminates the need to search for metaphase spreads in treated cell populations. Test articles affecting spindle-fiber function or formation can be detected through micronucleus induction. In this study, enucleated immature red blood cells or polychromatic erythrocytes (PCEs) were analyzed for the presence of micronuclei.
The micronucleus assay used 48 animals approximately 8 weeks old at the […], with a weight range of 28.4 to 35.3 g.
At least 2000 erythrocytes (PCEs) per animal were analyzed for the presence of […] was assessed by scoring the number of PCEs and ic erythrocytes (NCEs) in at least the first 500 erythrocytes for each […] of the micronuleus assay results is presented in the following table.

COc1ccc2c3c1OC1C(=O)C=C[C@@]4(O)[C@@H](C2)N(C)CC[C@]314 (some centres unmarked) [14-hydroxycodeinone]
Number of Mice (died/total) ([1]; 125 mg/kg): 0/6 | Number of Mice (died/total) ([1]; 250 mg/kg): 3 of 6 and 3/6 | Number of Mice (died/total) ([1]; 500 mg/kg): 14 of 18 and 14/18 | PCE:NCE mean ratio ([2]; 31.25 mg/kg oral gavage, harvest 24 Hours): 0.74 | PCE:NCE mean ratio ([2]; 62.5 mg/kg oral gavage, harvest 24 Hours): 0.64 | PCE:NCE mean ratio ([2]; 125 mg/kg oral gavage, harvest 24 Hours): 0.66 | PCE:NCE mean ratio ([2]; 125 mg/kg oral gavage, harvest 48 Hours): 0.36 | bone marrow toxicity (PCE:NCE ratio versus control 0.60) ([2]; 125 mg/kg, 48-hour group, difference not statistically significant at p≦0.05): suggesting induced bone marrow toxicity | statistically significant increase in micronucleated PCEs [2]: no signs of clinical toxicity or a statistically significant increase in micronucleated PCEs | statistically significant increase in micronucleated PCEs ([2]; listed as 14-Hydroxycodeinone): did not induce statistically significant increases | outcome of the mouse bone marrow micronucleus assay (mutagenic properties) ([2]; doses up to 125 mg/kg in mice): does not exhibit mutagenic properties; also recorded: negative | signs of clinical toxicity in treated animals [2]: no signs of clinical toxicity | signs of clinical toxicity in treated animals ([2]; listed as 14-hyrdroxycodeinone): did not induce signs of clinical | cytotoxicity to the bone marrow (PCE:NCE ratios versus control) ([2]; treated groups overall): lack of cytotoxicity to the bone marrow
